# How the values were obtained:
# [1] = test system: sperm promoter epigenome (DNA methylation); test: MeDIP-Chip with Affymetrix mouse promoter tiling arrays; assay type: in vivo; settings: duplicate arrays, no direct comparative hybridization; none confirmed by bisulfite PCR and mass spectrometry
# Text: Affymetrics' GeneChip® Mouse Promoter 1.0R Array was used, which contains 4.6 million probes tiled that interrogate nearly 28,000 mouse promoter regions. These probes are 25-mer and tiled at an average resolution of 35 bp with gaps of approximately 10 bp between probes. Each promoter region covers approximately 6 kb upstream through 2.5 kb downstream of 5′ transcription start sites. A total of 6 arrays were used, one each for C1, C2, V1 and V2, one for C1+C2 and another for their DNA inputs, InpC1+InpC2.
# [2] = test system: sperm promoter epigenome (DNA methylation); test: MeDIP-Chip (Nimblegen promoter tiling array, competitive hybridization) of F3 sperm DNA with qPCR validation; assay type: in vivo, mouse; settings: F3 generation sperm
# Description: Sperm heads were separated from tails and purified following the protocol described^53 (without protease inhibitors) from a total of six F3 vinclozolin generation mice and six F3 control generation mice in the range of 13-15 months of age. Sperm heads were then further purified using a 70% sucrose gradient centrifugation, based on the method described.^54 Purified sperm heads were resuspended in 1 ml buffer 0.5M tris-HCl, pH 8, 0.5M EDTA, 10% SDS and treated with 100 μl proteinase K (20 mg/mL) and 100 μl DDT (0.1 M) at 55° C. for 1 hour. DNA was precipitated with 50% isopropanol, washed with 70% ethanol and resuspended in DEPC H20. Individual sperm DNA was used as samples for further methylated DNA immunoprecipitation.^15 Two pools of samples were produced for each experimental treatment (control and vinclozolin), therefore each pool contained DNA from three animals from different litters. The MeDIP was performed as follows: 6 μg of genomic DNA was subjected to series of three 20 pulse sonications at 20% amplitude and the appropriate fragment size (200-1000 bp) was verified through 2% agarose gels; the sonicated genomic DNA was resuspended in 350 μl TE and denaturated for 10 min at 95° C. and then immediately placed on ice for 5 min; 100 μl of 5×IP buffer (50 mM Na-phosphate pH7, 700 mM NaCl, 0.25% Triton X-100) was added to the sonicated and denatured DNA.
# An overnight incubation of the DNA was performed with 5 μg of antibody anti-5-methylcytidine monoclonal from Diagenode S.A at 4° C. on a rotating platform. Protein A/G beads from Santa Cruz were prewashed on PBS-BSA 0.1% and resuspended in 40 μl 1× IP buffer. Beads were then added to the DNA-antibody complex and incubated 2 h at 4° C. on a rotating platform. Beads bound to DNA-antibody complex were washed 3 times with 1 ml 1×IP buffer; washes included incubation for 5 min at 4° C. on a rotating platform and then centrifugation at 6000 rpm for 2 min. Beads-DNA-antibody complex were then resuspended in 250 μl digestion buffer (50 mM Tris HCl pH 8, 10 mM EDTA, 0.5% SDS) and 3.5 μl of proteinase K (20 mg/ml) was added to each sample and then incubated overnight at 55° C. on a rotating platform. DNA purification was performed first with phenol and then with chloroform: isoamyl alcohol. Two washes were then performed with 70% ethanol, 1 M NaCl and glycogen. MeDIP-selected DNA was then resuspended in 30 μl TE buffer. MeDIP sperm DNA was pooled into each of the four above mentioned groups, adding equal amounts of sperm DNA from each individual sample to the pools. Therefore, a total of four pools of MeDIP sperm DNA (C1, C2, V1 and V2) were used for the ChIP arrays.
# Nimblegen Mouse Promoter 3×720K format microarray (Mouse Ref Seq promoter array) was used, each subarray contains 709,520 probes. […]
# caudal epididymal sperm = test: Epididymal sperm motility and concentration analyses; assay type: in vivo, mouse
# Description: The sperm motility was determined using caudal epididymal sperm. The epididymis was dissected free of connective tissue and a small cut made to the cauda. The tissue was placed in 2 ml F12 culture medium containing 0.1% BSA for 10 minutes at 37° C. Fifty microliters was placed on a warm slide and gently cover-slipped. The specimen was immediately examined using phase contrast microscopy with 200×magnification. The sperm motility assays examined rapid progressive, slow progressive and non-progressive motility according to WHO category.^51 The ratio of motile sperm to the total number of sperm, including immotile sperm, was calculated. Approximately 50-100 sperm were counted per microscopic field. The procedure was repeated at least twice with a new specimen from the same epididymis. Epididymal sperm count was determined using the same epididymis according to a previously described method with some modifications.^25, 52 Briefly, the epididymis that was placed in the 2 ml of culture medium was minced. The tissue pieces were stored at 4° C. for 48 hours to immobilize the sperm. Three independent sperm samples were counted using a hemocytometer. The counts were averaged and used as a replicate in statistical analysis. The control and vinclozolin generation analysis and the control and flutamide generation analysis for an individual experiment were done at the same time. All analyses were done blinded, such that different individuals were used for collection and counting.
# rats = settings: previous study; mammary tumors, prostate disease, kidney disease, testis and immune abnormalities; cited from earlier work
# [3] = test system: sperm promoter epigenome (DNA methylation); settings: previous comparative MeDIP-Chip study; cited from earlier work
smiles,measurement,setting,value
"C=CC1(C)OC(=O)N(c2cc(Cl)cc(Cl)c2)C1=O (racemic) [vinclozolin, (RS)-3-(3,5-dichlorophenyl)-5-methyl-5-vinyl-1,3-oxazolidine-2,4-dione]",number of differential methylation regions identified with Affymetrix tiling arrays,[1],seven
same,number of confirmed sites with decreased DNA methylation,[2]; CD-1,12
same,number of confirmed sites with increased DNA methylation,[2]; CD-1,28
same,"number of promoters with differential DNA methylation regions (DMR), MeDIP-Chip","[2]; CD-1, vinclozolin 100 mg/kg/day lineage vs control",66
same,number of DMR confirmed with qPCR,"[2]; CD-1, vinclozolin lineage vs control",40
same,mean epididymal sperm concentration,"caudal epididymal sperm; primarily F1 generation, not observed in 129 strain F2 or F3",reduction
same,mean percentage of motile epididymal sperm,caudal epididymal sperm; primarily in the F1 generation males,reduction
same,frequencies of adult onset disease states,rats,20-50%
same,number of promoters in rat sperm with transgenerational alteration in DNA methylation,[3],48
